One data set deals with HIV-1 strain NL4.3. Description: Anti-HIV-1 assay in MT-4 cells (p24 Ag ELISA, Example 3). The class given is cell-based. In a few lines: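 MT-4 cells infected with HIV-1 NL4.3 in presence of five-fold compound dilutions, incubated 3–5 days until strong viral CPE in untreated infected cells. Supernatant p24 core antigen measured by ELISA; IC50 is concentration giving 50% reduction in p24.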
For orientation: In an ELISA, binding on a coated surface is turned into a signal by an enzyme label.

Another data set deals with CCR5. Kind of data set: Cell surface expression of HIV coreceptor. The class given is cell-based, human. Conditions: incubation of the cells with CADA for 4 days. On the procedure: Expression of various other surface antigens was also examined in MT-4 cells, SupT1 cells and PBMCs after incubation with CADA (16 μM) or CADA-free medium at 37° C. for 4 days. After washing with phosphate-buffered saline (PBS) containing 2% FCS(fetal calf serum), the cells were incubated with mAb (as indicated in Table 1) for 20 min at 4° C. Then the cells were washed, fixed with 1% formaldehyde and analyzed by flow cytometry. All mAbs were purchased from Becton-Dickinson (Erembodegem, Belgium).

Data set [1] can be described thus: Cytotoxic concentration (Example 2). The class given is cell-based. The note with it: human, PBMC.
The nature of data set [2]: Cytotoxicity assay (trypan blue exclusion, propidium iodide). The format is cell-based, human. Conditions: human, read-out: CC50 (50% cytotoxic concentration). As for the experimental part:
Cytotoxicity Assay. Cellular toxicity of the compounds was measured by trypan blue exclusion and also by Propidium Iodide by flow cytometry after 3 or 4 days of incubation, in parallel with the CD4 antigen expression. The CC50 value of each CADA analog is the concentration (in μg/ml) required to reduce the viability of the cells by 50%.

In another data set the target is CD4 (Homo sapiens, UniProt P01730). Description: Cell surface CD4 expression by flow cytometry (anti-CD4 mAb Leu3a-PE). Set-up: To study the effect of the CADA derivatives on surface CD4 antigen expression, MT-4 and SupT1 cells were incubated; endogenous in cells; host or cells: MT-4, SupT1, PBMC. The class given is cell-based. The note with it: for CD4 cell surface antigen expression: percentage of positive cells, unit not given; for surface CD4 antigen expression: CADA 3.2 μM; for percentage of cell surface CD4 expression: ATA 24 μM, PMA 8 nM (FIG. 4). In a few lines:
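MT-4, SupT1 cells and PBMCs were exposed at 37° C to CADA hydrochloride (3.2 or 16 μM) for 20 min to 4 days, with ATA (24 μM) and PMA (8 nM) as comparators in SupT1. Cells were stained with PE-anti-CD4 (Leu3a) for 20 min at 4° C and fixed in 1% formaldehyde. Read-out was flow cytometry as % positive cells and MFI.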

Another data set has as its system HHV-7 (KHR strain). Description: Anti-HHV-7 assay (HHV-7 antigen expression, flow cytometry, day 12). The format is cell-based. On the procedure:
The antiviral activity of CADA against HIV-1 and RHV-7 was investigated. PBMCs and […] cell-depleted PBMCs (removed with CD8 magnetic beads; Dynal AS, Oslo, Norway), previously activated with purified PHA (2 μg/ml) and rhIL-2 (1 ng/ml) for 3 days, were pelleted and exposed to HIV-1 (1 ng p24 Ag per 10^6 cells) for 2 hours at 370C. Then the cells were washed three times with warm medium and cultured in complete medium containing rhIL-2 (1 ng/ml) in the presence or absence of different concentrations of CADA hydrochloride. The anti-HIV-1 assays were also performed in MT-4 and SupT1 cells. CADA hydrochloride was diluted in the plates, then the MT-4 cells or SupT1 cells were added and finally the T-tropic HIV-1 strains. The supernatant was collected at day 5 for MT-4 cells, day 8 for SupT1 cells and day 12 for PBMCs, and stored at −20° C. and analyzed for HIV-1 core antigen by p24 Ag ELISA (NEN, Brussels, Belgium). The SupT1 cells were refreshed on day 4, and half of the medium and cells were replaced and fresh CADA-free medium was added. For the PBMCs, fresh culture medium was added at day 6 containing rhIL-2 (but no CADA). For the anti-HHV-7 assays in PBMCs, CADA hydrochloride was diluted in a plate, 2×10˜cells were added and then HHV-7 (KHR strain) was added in complete medium containing rhIL-2 (1 ng/ml). Fresh culture medium was added again at day 6 containing rhIL-2 (but no CADA). The same infection protocol was used for the SupT1 cells, but without rhIL-2. The SupT1 cells were refreshed on day 4 and day 8, half of the medium and the cells were replaced, and fresh medium without CADA was added. The HHV-7 antigen expression was monitored (at day 12) with a specific mAb to HHV-7 (RK-4) (Advanced Biotechnologies, Columbia, Md.) by flow cytometry, as described previously (Thang, Y., et al., Antiviral Res. 43:23-35 (1999)).
In general terms: In flow cytometry, cells or beads pass a laser one at a time.

The mark [3] stands for this setting: Human immunodeficiency virus 1, MT4, 96 h, MT-4 cells, 0.4 μg/ml, 4 days (FIG. 5), read-out: inhibition of NL4.3 virus production (p24).
[4] abbreviates: Human immunodeficiency virus 1, MT4, MT-4 cells, read-out: IC50 HIV-1 (NL4.3), p24 Ag ELISA.

Values after ≈ are worked out from the molar mass of the structure shown. Read-outs that look alike come from different tables or passages of the source.

As for `C=C1CN(S(=O)(=O)c2ccc(C)cc2)CCCN(Cc2ccccc2)CCCN(S(=O)(=O)c2ccc(C)cc2)C1` [CADA], the inhibition (in general, the share of the control response that was lost under treatment) at 0.4 µg/mL with HIV-1 strain NL4.3 (setting [3]) amounted to 25%. For the same compound, the IC50 in the data set with HIV-1 strain NL4.3 (setting [4]) is 0.72 µg/mL (≈ 1.24 µM); in the data set on HIV-1 strain NL4.3 (Human immunodeficiency virus 1, MT4 cells, Table 6, unit inferred, read-out: IC50(HIV-1)) it was 0.52 µg/mL (≈ 0.894 µM); in the data set with HHV-7 (KHR strain) (PBMC, CD8+ depleted PBMC, read-out: IC50 against HHV-7) it was 900 nM; in the data set with HHV-7 (KHR strain) (PBMC, read-out: IC50 against HHV-7), 1500 nM; in the data set with HHV-7 (KHR strain) (SUP-T1, SupT1 cells, PBMCs and CD8+ T-cell depleted PBMCs, read-out: inhibitory concentration (IC50) for HHV-7, range over cell types), 300 to 1500 nM; in the data set on HHV-7 (KHR strain) (SUP-T1, SupT1 cells, read-out: IC50 against HHV-7) it was 300 nM. Further, the “inhibition of NL4.3 virus production (p24)” value in the data set on HIV-1 strain NL4.3 (MT-4 cells, 0.08 μg/ml, 4 days (FIG. 5)) was “no anti-HIV-1 activity”; in the data set on HIV-1 strain NL4.3 (MT-4 cells, 2 μg/ml, 4 days (FIG. 5)) it was “significant inhibition”; with HIV-1 strain NL4.3 (MT-4 cells, 10 μg/ml, 4 days (FIG. 5)) it was “significant inhibition”. This compound returned a p24 level in the data set on HIV-1 strain NL4.3 (MT-4 cells, NL4.3, 0.08 μg/ml, 4 days, infected control cells 325 ng/ml) of 392 ng/mL. Moreover, the “cell surface expression of CCR5” value in the data set with CCR5 is “remained unchanged”. Also, the CC50 was 73000 nM in data set [1], 23.6 µg/mL (≈ 40.6 µM) in data set [2] (MT-4 cells) and more than 50 µg/mL in data set [2] (SupT1 cells). For the same compound, the “CD4 cell surface antigen expression” value turned out to be 6.3 on CD4 (MT-4 T-cells, CADA 16 μM, 4 days); 0.2 on CD4 (PBMCs, CADA 16 μM, 4 days); 1.2 at CD4 (SupT1 T-cells, CADA 16 μM, 4 days). Also, the “surface CD4 antigen expression” value worked out at 4.9% at CD4 (MT-4 cells, 1 day, control 95.6%); 6.3% on CD4 (MT-4 cells, 4 days, control 95.6%); 46.4% at CD4 (SupT1 cells, 1 day, control 96.4%); 1.2% at CD4 (SupT1 cells, 4 days, control 96.4%). Moreover, the “percentage of CD4 expression” value on CD4 (PBMCs, CADA 16 μM, 4 days) is reported as 0.2%. Also, the “percentage of cell surface CD4 expression” value was “still as high as in the untreated cells” at CD4 (SupT1 cells, 20 minutes, CADA 16 μM); “still as high as in the untreated cells” at CD4 (SupT1 cells, 4 hours, CADA 16 μM); “decrease became clearly visible” at CD4 (SupT1 cells, 1 day, CADA 16 μM); 1.2% on CD4 (SupT1 cells, 4 days, CADA 16 μM). Moreover, the “effect of human serum on CD4 down-modulation induced by CADA” value at CD4 (presence of human serum) was “did not affect”.
As for `C=C1CN(S(=O)(=O)c2ccc(C)cc2)CCCN(CC2CCCCC2)CCCN(S(=O)(=O)c2ccc(C)cc2)C1` [QJ028], the inhibition at 0.4 µg/mL in the data set with HIV-1 strain NL4.3 (setting [3]) is 88%. In addition, the IC50 in the data set on HIV-1 strain NL4.3 (setting [4]) worked out at 0.2 µg/mL (≈ 0.34 µM). Besides, the CC50 in data set [2] (MT-4 cells) was found to be 20.7 µg/mL (≈ 35.2 µM); in data set [2] (SupT1 cells) it was 28.1 µg/mL (≈ 47.8 µM). In addition, the “down-regulation of CD4 expression (in words)” value on CD4 was “down-regulate CD4 expression”.
As for `C=C1CN(S(=O)(=O)c2ccc(C)cc2)CCCN(C(=O)OCCC)CCCN(S(=O)(=O)c2ccc(C)cc2)C1` [QJ033], the inhibition at 2 µg/mL with HIV-1 strain NL4.3 (Human immunodeficiency virus 1, MT4, 96 h, MT-4 cells, 2 μg/ml, 4 days (FIG. 5), read-out: inhibition of NL4.3 virus production (p24)) was 56%. In addition, the IC50 in the data set on HIV-1 strain NL4.3 (setting [4]) worked out at 1.22 µg/mL (≈ 2.11 µM). Besides, the “inhibition of NL4.3 virus production (p24)” value in the data set with HIV-1 strain NL4.3 (MT-4 cells, 0.4 μg/ml, 4 days (FIG. 5)) is listed as “no antiviral activity”. The CC50 in data set [2] (MT-4 cells) is 25.5 µg/mL (≈ 44.1 µM); in data set [2] (SupT1 cells) it was 32.5 µg/mL (≈ 56.3 µM). Further, the “down-regulation of CD4 expression (in words)” value at CD4 was “down-regulate CD4 expression”.

(Values after patent US20040220164A1, “Triaza compound immunoregulatory agents” (priority 2001, published 2004).)
